Measurements published in US4141993A, “Compounds of diphenylcyclopentylamine type and methods for their preparation” (priority 1971, dated 1979).
Where two headings read alike, the source gives them in different places.

Assays:
[1] = tested on: uptake of tritiated 5-HT; experiment: Inhibition of the uptake of tritiated 5-HT in vitro (midbrain slices); type: biochemical, mice; settings: for Inhibition (50 %) of uptake in vitro, 5-HT: 5-hydroxytryptamine 10^-7 M
Method: (§1) 1. Inhibition of the uptake of tritiated 5-HT in vitro and in vivo
[…] out and sliced and incubated in a mixture consisting of, per 100 mg of brain slices, […] 2 ml of Krebs-Henseleit buffer, pH 7.4. The incubation time was 5 minutes with 5 minutes of preincubation before ^3 H-5-HT was added. The radioactive ^3 H-5-HT taken up in the slices was extracted with ethanol and the amount was determined by liquid scintillation. […] Active uptake is defined as that part of the radioactive uptake which is inhibited by a high concentration of cocaine. All doses were given at least to four animals.

[2] = Acute toxicity in mice; settings: mouse, in vivo, iv, within 24 hours
Method: (§2) Acute toxicity, behavior and anticholinergic effect (mydriasis) in mice
(§3) The compounds were given by intravenous route to 3 mice. […] Seizures, gait, sedation and grip strength were recorded. […] PD200 is the dose which increases the pupil by 200%.

[3] = tested on: uptake of tritiated noradrenaline; experiment: Inhibition of the uptake of tritiated noradrenaline in vitro (cortex slices); type: biochemical; settings: for Inhibition (50 %) of uptake in vitro, NA: dl-noradrenaline 10^-7 M
Method: (§4) 2. Inhibition of the uptake of tritiated noradrenaline in vitro and in vivo
(§5) The method is found in European Journal of Pharmacology 2 (1967), 181- 186. The animals were killed half or one hour after the administration of the drugs in vivo (i.p.). The slices, made from cortex, were preincubated for five minutes and incubated with 0.1 μmole per ml of ^3 H-noradrenaline for further five minutes. The incubation mixture consisted of 0.2 μmole of ^3 H-NA and the brain slices in 2 ml of Krebs-Henseleits buffer, pH 7.4. The radioactive ^3 H-NA taken up in the slices was extracted with ethanol and the amount was determined by liquid scintillation. The dose producing 50 percent decrease of the active uptake (ED50) was determined graphically from dose response curves. At least four animals were used at each dose level.
Inhibition (50 %) of uptake
^2) Na = dl-noradrenaline 10^-7 M

[4] = tested on: mice; experiment: Anticholinergic effect (mydriasis) in mice; type: in vivo
Method: as §2, §3

[5] = tested on: uptake of tritiated 5-HT; experiment: Inhibition of the uptake of tritiated 5-HT in vivo (drug i.p., uptake in midbrain slices); set-up: species or system mice; settings: for ED50: Mus musculus, ip, 0.5 h, read-out: Inhibition (50 %) of uptake in vivo, 5-HT (ED50), i.p., half an hour before the animals were killed
Method: as §1
The drugs were administered intraperitoneally half an hour before the animals were killed and the midbrain was taken out and sliced and incubated in a mixture consisting of, per 100 mg of brain slices, 0.2 μmole of ^3 H-5-HT and 1 μmole of glucose in 2 ml of Krebs-Henseleit buffer, pH 7.4. The incubation time was 5 minutes with 5 minutes of preincubation before ^3 H-5-HT was added. The radioactive ^3 H-5-HT taken up in the slices was extracted with ethanol and the amount was determined by liquid scintillation. […] Active uptake is defined as that part of the radioactive uptake which is inhibited by a high concentration of cocaine. All doses were given at least to four animals.

[6] = tested on: mice; experiment: Motor activity in mice (exploratory activity, locomotion cage); type: in vivo; settings: Mus musculus, ip, 1 h, read-out: Motor activity ID50
Method: The exploratory activity of mice was recorded in a locomotion cage in which the movements were counted each time the animals cross-circuit an electrical current in the bottom plate. The activity was recorded for ten minutes one hour after the administration of the drug. The animals were tested individually. Groups of six mice were used and the mice were only used once. The activity was expressed in percent of the activity of control groups ran simultaneously.

[7] = tested on: 5-HTP response; experiment: 5-HTP response potentiation test; type: in vivo, mice; settings: 0 = without effect; for 5-HTP potentiation, 25 mg/kg i.p., 1h: drug 1 h before 5-HTP; for 5-HTP potentiation, 25 mg/kg i.p., 4h: drug 4 h before 5-HTP
Method: 1. 5-HTP response potentiation test
Inhibition of the uptake of 5-HT potentiates the effects of administered 5-hydroxytryptophane (5-HTP) probably by increasing the amount of 5-HT at the receptor.
These small movements are quantitatively measured in an activity box, type Animex, which can distinguish between small and gross movements. The activity is measured during 20 minutes and only in the case the animals have a fullblown syndrome.

[8] = tested on: uptake of tritiated noradrenaline; experiment: Inhibition of the uptake of tritiated noradrenaline in vivo (drug i.p., uptake in cortex slices); settings: for ED50: ip, 1 h, read-out: Inhibition (50 %) of uptake in vivo, NA (ED50), i.p., half or one hour before the animals were killed
Method: as §4
as §5, with “The” for “The method is found in European Journal of Pharmacology 2 (1967), 181- 186. The”

[9] = tested on: Dopa response; experiment: Dopa response potentiation test; type: in vivo, mice; settings: for L-DOPA potentiation, 10 mg/kg i.p., 4h / L-DOPA potentiation, 10 mg/kg i.p., 1h: score, pargyline pretreated; for L-DOPA potentiation, 10 mg/kg i.p., 4h: drug 4 h before 1-Dopa 100 mg/kg i.p.; for L-DOPA potentiation, 10 mg/kg i.p., 1h: drug 1 h before 1-Dopa 100 mg/kg i.p.; for L-DOPA potentiation, entry given as a bound (no score): printed in the 1h column, head 10 mg/kg i.p.
Method: Mice in groups of 3 are pretreated with Pargyline® 40 mg/kg p.o. about 10-16 hours before the test. […] 1-Dopa gives a characteristic syndrome which is scored as follows:
1. piloerection, slight salivation, slight increased motor activity
2. piloerection, salivation, marked increased motor activity and irritability
3. piloerection, profuse salivation, marked irritability and reactivity, jumping, squeaking, fighting.
The control groups are Amitriptyline (20 mg/kg i.p. 4 hours before 1-Dopa) and saline (1 hour before 1-Dopa). […] The test drugs were all tested at 10 mg/kg i.p.

[10] = i.p., one hour after administration
[11] = i.v., 10 minutes after injection, dose which increases the pupil by 200%

SMILES: CN(C)C1CCC(c2ccccc2)(c2ccc(Cl)cc2)C1 (centres unmarked) [PUN 123, 1-dimethylamino-3-(4-chlorophenyl)-3-phenylcyclopentane]
- Inhibition (50 %) of uptake in vitro, 5-HT [1]: 1 µg/mL
- inhibition of uptake of 5-hydroxytryptamine in vitro, in words [1]: potent inhibitors
- LD50 at 24 h [2]: 30 mg/kg
- Inhibition (50 %) of uptake in vitro, NA [3]: 1 µg/mL
- inhibition of uptake of noradrenaline in vitro, in words [3]: potent inhibitors
- Mydriasis PD200 ([4]; mouse, in vivo, iv, 10 min): < 10 mg/kg
- ED50 [5]: 40 mg/kg
- inhibition of uptake of 5-hydroxytryptamine in vivo, in words ([5]; in vivo): strong inhibition
- ED50 [6, 10]: > 50 mg/kg
- 5-HTP potentiation, 25 mg/kg i.p., 1h [7]: 25
- 5-HTP potentiation, 25 mg/kg i.p., 4h [7]: 0
- inhibition of uptake of noradrenaline in vivo, in words [8]: strong inhibition
- ED50 [8]: 30 mg/kg
- selectivity towards noradrenaline ([8]; uptake inhibition, compared with imipramine): substantially nonselective ability towards noradrenaline
- L-DOPA potentiation, 10 mg/kg i.p., 4h [9]: 3

SMILES: CNC1CCC(c2ccccc2)(c2ccc(Cl)cc2)C1 (centres unmarked) [PUN 125, 1-methylamino-3-(4-chlorophenyl)-3-phenylcyclopentane]
- Inhibition (50 %) of uptake in vitro, 5-HT [1]: 2 µg/mL
- Inhibition (50 %) of uptake in vitro, NA [3]: 1 µg/mL
- ED50 [5]: > 40 mg/kg
- 5-HTP potentiation, 25 mg/kg i.p., 1h [7]: 0
- ED50 [8]: > 40 mg/kg
- L-DOPA potentiation, 10 mg/kg i.p., 1h [9]: 1
- L-DOPA potentiation, 10 mg/kg i.p., 4h [9]: 1

SMILES: CN(C)CC1CCC(c2ccccc2)(c2ccccc2)C1 (centres unmarked) [PUE 117, 1-dimethylaminomethyl-3,3-diphenylcyclopentane]
- Inhibition (50 %) of uptake in vitro, 5-HT [1]: 3.6 µg/mL
- LD50 at 24 h [2]: 30 mg/kg
- Inhibition (50 %) of uptake in vitro, NA [3]: 2.3 µg/mL
- Mydriasis PD200 [4, 11]: < 1 mg/kg
- ED50 [5]: > 40 mg/kg
- ED50 [6]: > 50 mg/kg
- 5-HTP potentiation, 25 mg/kg i.p., 1h [7]: 0
- ED50 [8]: 17 mg/kg
- L-DOPA potentiation, 10 mg/kg i.p., 1h [9]: 3
- L-DOPA potentiation, 10 mg/kg i.p., 4h [9]: 1.5

SMILES: CN(C)CCC=C1c2ccccc2CCc2ccccc21 [Amitriptyline, reference compound]
- Dopa response score of control ([9]; 20 mg/kg i.p. 4 hours before 1-Dopa): three

SMILES: NC1CCC(c2ccc(Cl)cc2)(c2ccc(Cl)cc2)C1 (centres unmarked) [PUT 108, 1-amino-3,3-di(4-chlorophenyl)cyclopentane]
- Inhibition (50 %) of uptake in vitro, 5-HT [1]: 1 µg/mL
- LD50 at 24 h [2]: 23 mg/kg
- Inhibition (50 %) of uptake in vitro, NA [3]: 2.5 µg/mL
- Mydriasis PD200 ([4]; mouse, in vivo, iv, 10 min): > 23 mg/kg
- ED50 [5]: > 40 mg/kg
- ED50 [6, 10]: > 50 mg/kg
- 5-HTP potentiation, 25 mg/kg i.p., 1h [7]: > 25
- ED50 [8]: > 40 mg/kg
- L-DOPA potentiation, entry given as a bound (no score) [9]: > 10

SMILES: NCC1CCC(c2ccccc2)(c2ccccc2)C1 (centres unmarked) [PUE 119, 1-aminomethyl-3,3-diphenylcyclopentane]
- Inhibition (50 %) of uptake in vitro, 5-HT [1]: 0.34 µg/mL
- inhibition of uptake of 5-hydroxytryptamine in vitro, in words [1]: considerably weaker effect
- LD50 at 24 h [2]: 22 mg/kg
- Inhibition (50 %) of uptake in vitro, NA [3]: 0.025 µg/mL
- inhibition of uptake of noradrenaline in vitro, in words [3]: strongly effective
- Mydriasis PD200 [4, 11]: 2.5 mg/kg
- ED50 [5]: > 40 mg/kg
- ED50 [6]: > 50 mg/kg
- 5-HTP potentiation, 25 mg/kg i.p., 1h [7]: 0
- 5-HTP potentiation, 25 mg/kg i.p., 4h [7]: 0
- inhibition of uptake of noradrenaline in vivo, in words [8]: Strong inhibition of the uptake of noradrenaline only
- L-DOPA potentiation, 10 mg/kg i.p., 1h [9]: 1.5
- L-DOPA potentiation, 10 mg/kg i.p., 4h [9]: 1.5

SMILES: COc1ccc(C2(c3ccccc3)CCC(N)C2)cc1 (centres unmarked) [PUT 104, 1-amino-3-(4-methoxyphenyl)-3-phenylcyclopentane]
- Inhibition (50 %) of uptake in vitro, 5-HT [1]: 0.5 µg/mL
- inhibition of uptake of 5-hydroxytryptamine in vitro, in words [1]: potent inhibitors
- LD50 at 24 h [2]: > 40 mg/kg
- Inhibition (50 %) of uptake in vitro, NA [3]: 1 µg/mL
- inhibition of uptake of noradrenaline in vitro, in words [3]: potent inhibitors
- Mydriasis PD200 ([4]; mouse, in vivo, iv, 10 min): > 40 mg/kg
- ED50 [5]: > 40 mg/kg
- 5-HTP potentiation, 25 mg/kg i.p., 1h [7]: > 25
- ED50 [8]: > 40 mg/kg
- L-DOPA potentiation, entry given as a bound (no score) [9]: > 10
